From patent US20110224170A1, “Pyranopyranone derivatives as antimicrobial agents” (BASF SE, priority 2010, published 2011)
In brackets after ≈: the same amount, converted by molar mass.

Experiments:
A. niger ATCC 6275 = assay: Suspension test for fungicidal activity (modified EN 1275), residual cell count; type: cell-based, Aspergillus niger
Method: The fungicidal activity of the compounds of the present invention is measured in a suspension test according to trivial modifications of the European Standard method EN 1275. The pyrano pyranone derivatives are dissolved in ethanol or DMSO resulting in 1% stock solutions of the compounds. The cell density of Candida albicans ATCC 10231 used as inoculum for the suspension test was 2.4×10^8 cfu/ml and of A. niger ATCC 6275 3.8×10^8 cfu/ml. Aliquots of 1 ml were taken of the A. niger containing test mixtures after set contact times for determination of the residual cell count. For inactivation of the antimicrobial compounds, the 1 ml aliquots were diluted in 1:10 steps in a solution of the following composition: [table]

[1] = system: gram positive and gram negative bacteria; assay: Suspension test for bactericidal activity (modified EN 1040), residual cell count; type: cell-based
Method: The bactericidal activity of the compounds of the present invention is measured in a suspension test according to trivial modifications of the European Standard method EN 1040. Substances listed in Table 1 are tested against gram positive and gram negative bacteria, yeasts and moulds. A selection of the results is shown in the following. The pyrano pyranone derivatives are dissolved in ethanol or DMSO resulting in 1% stock solutions of the compounds. The cell densities of the bacterial suspensions used as inoculums for the suspension test are as follows (cfu=colony forming units): [table] For the suspension tests, an appropriate concentration of the test compound is mixed with a bacterial suspension resulting in a final cell count in the mixture of about 10^5 cfu/ml. These test mixtures are incubated at room temperature (22° C.+/−2° C.) and aliquots of 1 ml test mixture containing the test bacteria were taken after set contact times for determination of the residual cell count of test bacteria. For inactivation of the antimicrobial compounds, the 1 ml aliquots are diluted in 1:10 steps in a solution with 10% Tween, 3% lecithin, 0.1% histidine and 0.5% sodium thiosulfate.

[2] = system: Candida albicans ATCC 10231; assay: Suspension test for fungicidal activity (modified EN 1275), residual cell count; type: cell-based; settings: C. albicans
Method: The fungicidal activity of the compounds of the present invention is measured in a suspension test according to trivial modifications of the European Standard method EN 1275. The pyrano pyranone derivatives are dissolved in ethanol or DMSO resulting in 1% stock solutions of the compounds. The cell density of Candida albicans ATCC 10231 used as inoculum for the suspension test was 2.4×10^8 cfu/ml and of A. niger ATCC 6275 3.8×10^8 cfu/ml. For the suspension tests, an appropriate concentration of the test compound is mixed with a Candida albicans suspension resulting in a final cell count of about 10^5 cfu/ml. These test mixtures are incubated at room temperature (22° C.+/−2° C.) and aliquots of 1 ml test mixture containing Candida albicans were taken after set contact times for determination of the residual cell count. For inactivation of the antimicrobial compounds, the 1 ml aliquots are diluted in 1:10 steps in a solution with 10% Tween, 3% lecithin, 0.1% histidine and 0.5% sodium thiosulfate.

[3] = system: Malassezia furfur DSM 6171, CIP 1636-86; assay: Agar incorporation test, minimum inhibitory concentration (MIC); type: cell-based; settings: M. fufur
Method: For determination of the microbistatic activity, the Minimum Inhibitory Concentrations (MIC) of the test compounds is determined.
The pyrano pyranone derivatives are also tested in an agar incorporation test in order to determine their minimum inhibitory concentrations (MIC) against various tests organisms. A selection of the results is shown in the following.
For this compound, a 1% stock solutions i9s prepared in ethanol.
A dilution series of the test compound in 15 ml still liquid agar media are prepared with 400 ppm, 200 ppm, 100 ppm, 50 ppm, 25 ppm, 12.5 ppm, 6.25 ppm, 3.125 ppm and 1.56 pmm of active.
The media used for the agar plates are Müller-Hinton (Merck) for the determination of the MIC against bacteria and C. albicans and Sabouraud Agar (Merck) for the determination of the MIC against A. niger. For the determination of the MIC against Malassezia furfur DSM 6171, CIP 1636-86 Medium 472 (DSMZ—Deutsche Sammlung von Mikroorganismen and Zellkulturen GmbH) was used.
After solidification of the agar, all agar plates containing the test compounds were stored over night in the laboratory (at about 22° C.) for drying. […]
10 μl of these cell dilutions are then dotted onto the surface of the agar media. […] (for Aspergillus niger), 4 days at 30° C. and then the highest dilution of the test compound at which no more growth was observed (corresponds to the MIC) is determined. […]

[4] = P. aeruginosa, contact time 24 h

SMILES	log reduction after set contact time (A. niger ATCC 6275; contact time 24 h)	residual cell count (cfu/ml) after set contact time (A. niger ATCC 6275; contact time 24 h)	log reduction after set contact time ([1]; E. coli, contact time 24 h)	residual cell count (cfu/ml) after set contact time ([1]; E. coli, contact time 24 h)	log reduction after set contact time [1, 4]	residual cell count (cfu/ml) after set contact time [1, 4] [cfu/ml]	log reduction after set contact time ([1]; S. aureus, contact time 24 h)	residual cell count (cfu/ml) after set contact time ([1]; S. aureus, contact time 24 h) [cfu/ml]	log reduction after set contact time ([2]; contact time 24 h)	residual cell count (cfu/ml) after set contact time ([2]; contact time 24 h) [cfu/ml]	log reduction after set contact time (A. niger ATCC 6275; contact time 7 d)	residual cell count (cfu/ml) after set contact time (A. niger ATCC 6275; contact time 7 d)	MIC [3] [µg/mL]	log reduction after set contact time ([1]; S. aureus, contact time 7 d)	residual cell count (cfu/ml) after set contact time ([1]; S. aureus, contact time 7 d) [cfu/ml]	log reduction after set contact time ([2]; contact time 7 d)	residual cell count (cfu/ml) after set contact time ([2]; contact time 7 d) [cfu/ml]
CC1=Cc2c(cc(C)oc2=O)OC1C (stereo not shown) [P-1]	2.2	1.2 × 10^3 cfu/ml	>3	<100 cfu/ml	>3	<100	>3	<100	>3	<100							
CC(C)=CCCC1(C)C=Cc2c(cc(C)oc2=O)O1 (stereo not shown) [P-3]			>3	<100 cfu/ml	>3	<100	>3	<100	>3	<100	2.2	1.2 × 10^3 cfu/ml					
Cc1cc2c(c(=O)o1)C=CC(C)(C)O2 [P-4]	>3	<10 cfu/ml	>3	<100 cfu/ml	>3	<100	>3	<100	>3	<100							
CC1=Cc2c(cc(C)oc2=O)OC1c1ccco1 (stereo not shown) [P-5]			>3	4.0 × 10^2 cfu/ml	>3	<100							50 (≈ 205 µM)	>3	<100	>3	<100
CCCC1C=Cc2c(cc(C)oc2=O)O1 (stereo not shown) [P-6]	>3	<10 cfu/ml	>3	<100 cfu/ml	>3	<100	>3	<100	>3	<100							
